One block for each molecule: values may come before it.
Key:
[1] = tested on: MSSA (Staphylococcus aureus ATCC# 25923); experiment: Antibiotic testing on Mueller Hinton agar plates; details: 30° C., even after 40 h
[2] = tested on: Methicillin Resistant S. aureus (MRSA, ATCC# 43300); experiment: Plug-based microfluidic antibiotic susceptibility screen (stochastic confinement, alamarBlue viability indicator); assay type: cell-based, Staphylococcus aureus; details: breakpoint concentration, 4 nL plugs, 4×10^5 CFU/mL, 7 h at 37° C.
[3] = tested on: S. aureus strain (MRSA); experiment: Macro-scale experiments (negative control check); assay type: cell-based, Staphylococcus aureus; details: data not shown
[4] = tested on: Methicillin Sensitive S. aureus (MSSA); experiment: MIC determination in plugs; details: Staphylococcus aureus, 6.5 h, read-out: MIC of CFX for MSSA
[5] = tested on: Methicillin Resistant S. aureus (MRSA); experiment: MIC determination in plugs; details: Staphylococcus aureus, 6.75 h, read-out: MIC of CFX for MRSA
[6] = tested on: Methicillin Resistant S. aureus (MRSA); details: CFX 24 mg/L; stated as known; cited from earlier work
[7] = tested on: Methicillin Sensitive S. aureus (MSSA); details: CFX 24 mg/L; stated as known; cited from earlier work
[8] = tested on: MSSA; experiment: Plug-based drug screening in human blood plasma/LB; details: 1:1 human blood plasma/LB; breakpoint concentration; 7.5 h at 37° C.

Compound: Cc1onc(-c2ccccc2)c1C(=O)N[C@@H]1C(=O)N2[C@@H]1SC(C)(C)[C@@H]2C(=O)O [OXA, oxacillin]
Appearance of MSSA colonies on antibiotic plates [1]: did not appear

Compound: CN[C@H](CC(C)C)C(=O)N[C@H]1C(=O)N[C@@H](CC(N)=O)C(=O)N[C@H]2C(=O)N[C@H]3C(=O)N[C@H](C(=O)N[C@H](C(=O)O)c4cc(O)cc(O)c4-c4cc3ccc4O)[C@H](O)c3ccc(c(Cl)c3)Oc3cc2cc(c3O[C@@H]2O[C@H](CO)[C@@H](O)[C@H](O)[C@H]2O[C@H]2C[C@](C)(N)[C@H](O)[C@H](C)O2)Oc2ccc(cc2Cl)[C@H]1O [VCM, vancomycin]
Susceptibility of MRSA to antibiotic (increase in fluorescence intensity of plugs versus 3 times the VCM baseline) [2]: sensitive
Susceptibility of MRSA to antibiotic (increase in fluorescence intensity of plugs versus 3 times the VCM baseline) ([2]; listed as Vancomycin): not resistant
Inhibition of the S. aureus strain in macro-scale experiments [3]: inhibited

MIC [4]: < 4000 µg/mL
MIC [5]: < 8000 µg/mL
Compound: CO[C@@]1(NC(=O)Cc2cccs2)C(=O)N2C(C(=O)O)=C(COC(N)=O)CS[C@@H]21 [CFX, cefoxitin]
Appearance of MSSA colonies on antibiotic plates [1]: did not appear
Inhibition of MRSA at the positive control concentration [6]: inhibited
Inhibition of MSSA at the positive control concentration [7]: inhibited

Compound: CC1(C)S[C@@H]2[C@H](NC(=O)[C@H](N)c3ccccc3)C(=O)N2[C@H]1C(=O)O [AMP, ampicillin]
Increase in fluorescence intensity of plugs containing MSSA and antibiotic [8]: no increase in fluorescence intensity

— US11661577B2, “Co-incubating confined microbial communities” (CALIFORNIA INSTITUTE OF TECHNOLOGY, priority 2007, dated 2023)
